Results from ChEMBL document CHEMBL1201862, “PubChem BioAssay data set” (2004).
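Compound exposure: 48 hours, 5 concentrations, 96-well plates. GI50 marks 50% less growth.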 Calls of active or inactive are those of the source. Rule as the data show it: active = GI50 up to about 1.1 µM and inactive = higher.

Legend:
Test in all cases: NCI-60 cell line screen, 48 h
A549 = tested on: A549
COLO 205 = tested on: COLO 205
EKVX = tested on: EKVX
HCT-116 = tested on: HCT-116
HCT-15 = tested on: HCT-15
LOX IMVI = tested on: LOX IMVI
MDA-MB-231 = tested on: MDA-MB-231
MDA-MB-435 = tested on: MDA-MB-435
NCI-H23 = tested on: NCI-H23
NCI-H460 = tested on: NCI-H460
OVCAR-4 = tested on: OVCAR-4
SF-539 = tested on: SF-539
SK-MEL-5 = tested on: SK-MEL-5
SNB-19 = tested on: SNB-19
UACC-257 = tested on: UACC-257
UO-31 = tested on: UO-31
K562 = tested on: K562
OVCAR-5 = tested on: OVCAR-5
U-251 = tested on: U-251
HCC 2998 = tested on: HCC 2998

Compound | GI50 (A549) | GI50 (COLO 205) | GI50 (EKVX) | GI50 (HCT-116) | GI50 (HCT-15) [µM] | GI50 (LOX IMVI) | GI50 (MDA-MB-231) | GI50 (MDA-MB-435) | GI50 (NCI-H23) | GI50 (NCI-H460) | GI50 (OVCAR-4) | GI50 (SF-539) | GI50 (SK-MEL-5) | GI50 (SNB-19) | GI50 (UACC-257) | GI50 (UO-31) | GI50 (K562) | GI50 (OVCAR-5) | GI50 (U-251) | GI50 (HCC 2998)
O=[N+]([O-])c1ccc2[nH]c(-c3ccc(Cl)cc3)nc2c1 | 20.8 µM (inactive) | 16.7 µM (inactive) | 14.4 µM (inactive) | 17.3 µM (inactive) | 14.9 | 18.1 µM (inactive) | 15.5 µM (inactive) | 23.6 µM (inactive) | 25.3 µM (inactive) | 19.5 µM (inactive) | 32.7 µM (inactive) | 21.1 µM (inactive) | 16.1 µM (inactive) | 26 µM (inactive) | 20.5 µM (inactive) | 23.9 µM (inactive) |  |  |  | 
O=C(O)c1ccccc1C1c2ccccc2Oc2ccccc21 | 48.6 µM (inactive) |  | 49.2 µM (inactive) | 45.3 µM (inactive) | 36.9 | 98.4 µM (inactive) | > 100 µM (inactive) | 52.4 µM (inactive) | 39.7 µM (inactive) | 39.9 µM (inactive) | 69.7 µM (inactive) |  | 41.4 µM (inactive) | 85.7 µM (inactive) | > 100 µM (inactive) | 65.8 µM (inactive) | 75.2 µM (inactive) | > 100 µM (inactive) | 35.2 µM (inactive) | 
CN(C)CCCNc1ncnc2[nH]cnc12 | > 100 µM (inactive) | > 100 µM (inactive) | > 100 µM (inactive) | > 100 µM (inactive) | > 100 | > 100 µM (inactive) | > 100 µM (inactive) | > 100 µM (inactive) | > 100 µM (inactive) | > 100 µM (inactive) | > 100 µM (inactive) |  | > 100 µM (inactive) | > 100 µM (inactive) |  | > 100 µM (inactive) | > 100 µM (inactive) | > 100 µM (inactive) | > 100 µM (inactive) | > 100 µM (inactive)
NNc1nnc(-c2nnc(NN)o2)o1 | > 10 µM (inactive) | > 10 µM (inactive) | > 10 µM (inactive) | > 10 µM (inactive) | > 10 |  | > 10 µM (inactive) | > 10 µM (inactive) | > 10 µM (inactive) | > 10 µM (inactive) | > 10 µM (inactive) | > 10 µM (inactive) | > 10 µM (inactive) | > 10 µM (inactive) | > 10 µM (inactive) | > 10 µM (inactive) | > 10 µM (inactive) | > 10 µM (inactive) | > 10 µM (inactive) | > 10 µM (inactive)
CCOC(=O)NC(=S)NN(C)C1=NCC(C)(C)S1 | > 100 µM (inactive) | > 100 µM (inactive) | > 100 µM (inactive) | > 100 µM (inactive) | > 100 | > 100 µM (inactive) | > 100 µM (inactive) | > 100 µM (inactive) |  | > 100 µM (inactive) |  | > 100 µM (inactive) | > 100 µM (inactive) | > 100 µM (inactive) | > 100 µM (inactive) | > 100 µM (inactive) | > 100 µM (inactive) | > 100 µM (inactive) | > 100 µM (inactive) | 
CCOP(=O)(OCC)/C(C#N)=C/c1coc2cc(C)cc(C)c2c1=O | > 100 µM (inactive) | > 100 µM (inactive) | > 100 µM (inactive) | > 100 µM (inactive) |  | > 100 µM (inactive) | > 100 µM (inactive) | > 100 µM (inactive) | > 100 µM (inactive) | > 100 µM (inactive) | > 100 µM (inactive) |  | > 100 µM (inactive) | > 100 µM (inactive) | > 100 µM (inactive) | > 100 µM (inactive) | > 100 µM (inactive) | > 100 µM (inactive) | > 100 µM (inactive) | > 100 µM (inactive)
CN1C2CCC1CC(CC(=O)NC(c1ccc(F)cc1)c1ccc(F)cc1)C2 (stereo not drawn) | > 100 µM (inactive) | 21.5 µM (inactive) | > 100 µM (inactive) | 59.7 µM (inactive) | > 100 | 80 µM (inactive) | > 100 µM (inactive) | 35.6 µM (inactive) | > 100 µM (inactive) | > 100 µM (inactive) | > 100 µM (inactive) | 70 µM (inactive) | 20.8 µM (inactive) | > 100 µM (inactive) | 20 µM (inactive) | 56.1 µM (inactive) | 37.7 µM (inactive) | > 100 µM (inactive) | > 100 µM (inactive) | 
C=C[C@@]1(O)CCCC[C@@H]1CC(Sc1ccccc1)Sc1ccccc1 | 15.9 µM (inactive) | 18.3 µM (inactive) | 15.3 µM (inactive) | 15.6 µM (inactive) | 17.1 | 19.6 µM (inactive) | 17.1 µM (inactive) | 16.3 µM (inactive) | 17.2 µM (inactive) | 13.4 µM (inactive) | 16.9 µM (inactive) |  | 17.1 µM (inactive) | 18 µM (inactive) | 17.4 µM (inactive) | 17.2 µM (inactive) | 33 µM (inactive) | 18.8 µM (inactive) | 16.7 µM (inactive) | 13 µM (inactive)
CC1CCCN(CC(O)CN2CCCc3ccccc32)C1 (stereo not drawn) | > 100 µM (inactive) | > 100 µM (inactive) | > 100 µM (inactive) | > 100 µM (inactive) | > 100 | > 100 µM (inactive) | > 100 µM (inactive) | > 100 µM (inactive) | > 100 µM (inactive) |  | > 100 µM (inactive) |  | > 100 µM (inactive) | > 100 µM (inactive) | > 100 µM (inactive) | 76 µM (inactive) | > 100 µM (inactive) | > 100 µM (inactive) | > 100 µM (inactive) | 
Cn1c(=O)c2c(nc(NCCCCl)n2CC(=O)NCCCCl)n(C)c1=O | > 100 µM (inactive) | > 100 µM (inactive) | > 100 µM (inactive) | > 100 µM (inactive) | > 100 | > 100 µM (inactive) | > 100 µM (inactive) | > 100 µM (inactive) | > 100 µM (inactive) | > 100 µM (inactive) | > 100 µM (inactive) |  | > 100 µM (inactive) | > 100 µM (inactive) | > 100 µM (inactive) | > 100 µM (inactive) | > 100 µM (inactive) | > 100 µM (inactive) | > 100 µM (inactive) | > 100 µM (inactive)
CC1OC(OC2C(O[C@H]3CC[C@@]4(C)[C@@H](CC[C@@H]5[C@@H]4CC[C@]4(C)[C@@H]6[C@H](C[C@@H]54)O[C@]4(CC[C@@H](C)CO4)[C@H]6C)C3)OC(CO)C(OC3OC(CO)C(O)C(OC4OCC(O)C(O)C4O)C3OC3OCC(O)C(O)C3O)C2O)C(O)C(O)C1O (stereo partly drawn) | 0.336 µM (active) | 0.351 µM (active) | 1.51 µM (inactive) | 0.321 µM (active) | 1.21 | 0.514 µM (active) | 2.03 µM (inactive) | 1.42 µM (inactive) | 1.52 µM (inactive) | 0.625 µM (active) | 1.47 µM (inactive) | 0.303 µM (active) | 1.12 µM (inactive) | 0.995 µM (active) | 1.3 µM (inactive) | 1.04 µM (active) |  | 1.16 µM (inactive) | 0.514 µM (active) | 1.63 µM (inactive)
COc1ccc(C2(O)C(S(=O)(=O)c3ccc(C)cc3)=Cc3ccc(OC)cc32)cc1 (stereo not drawn) | > 100 µM (inactive) | > 100 µM (inactive) | 78.2 µM (inactive) | > 100 µM (inactive) | > 100 | > 100 µM (inactive) | > 100 µM (inactive) | > 100 µM (inactive) | > 100 µM (inactive) | > 100 µM (inactive) |  | 43.5 µM (inactive) | > 100 µM (inactive) | 43.7 µM (inactive) | > 100 µM (inactive) |  | > 100 µM (inactive) | > 100 µM (inactive) | 41.2 µM (inactive) | > 100 µM (inactive)
CCOC(=O)CCCN | > 100 µM (inactive) | > 100 µM (inactive) | > 100 µM (inactive) | > 100 µM (inactive) | > 100 | > 100 µM (inactive) | > 100 µM (inactive) | > 100 µM (inactive) | > 100 µM (inactive) | > 100 µM (inactive) | > 100 µM (inactive) |  | > 100 µM (inactive) | > 100 µM (inactive) | > 100 µM (inactive) | > 100 µM (inactive) | > 100 µM (inactive) | > 100 µM (inactive) | > 100 µM (inactive) | > 100 µM (inactive)
NC(=O)c1cn(C2OC(CO)C(O)C2O)c2nc[n+]([O-])c(N)c12 (stereo not drawn) | 0.285 µM (active) | 0.201 µM (active) | 1.21 µM (inactive) | 0.0206 µM (active) | 0.0735 | 0.104 µM (active) | 0.342 µM (active) | 0.167 µM (active) | 0.121 µM (active) | 0.446 µM (active) | 0.201 µM (active) | 0.321 µM (active) | 0.0333 µM (active) | 0.542 µM (active) | 0.244 µM (active) | 0.382 µM (active) | 0.34 µM (active) | 0.161 µM (active) | 0.285 µM (active) | 
C=CCOn1c(C=C)nc2c(C)cccc21 | 3.38 µM (inactive) | 1.95 µM (inactive) | 13.5 µM (inactive) | 2.01 µM (inactive) | 3.07 | 2.9 µM (inactive) | 3.83 µM (inactive) | 1.63 µM (inactive) | 7.74 µM (inactive) | 2.32 µM (inactive) | 8.89 µM (inactive) |  | 3.89 µM (inactive) | 5.2 µM (inactive) | 2.99 µM (inactive) | 2.43 µM (inactive) | 3.57 µM (inactive) | 7.03 µM (inactive) | 1.98 µM (inactive) | 6.08 µM (inactive)
